Assay results taken from patent US20090233999A1, “COMPOSITIONS AND THERAPEUTIC METHODS INVOLVING ISOFLAVONES AND ANALOGUES THEREOF” (NOVOGEN RESEARCH PTY LTD, priority 1999, published 2009).
Marks after values point to notes of the source that are not given here.

Legend:
TNFα = assay: LPS-induced TNFα synthesis in RAW 264.7 murine macrophages; assay type: cell-based, mouse; details: 10 μM; RAW 264.7, LPS
Method: Subconfluent RAW 264.7 cells were seeded into 24-well plates at 5×10^5 cells per well and allowed to adhere for 1 hr. Cells were then treated either test compound (in 0.025% DMSO) or vehicle alone, and incubated for 1 hr. LPS 50 ng/ml (LPS—Sigma-Aldrich) was then added. After incubation for 16 hrs, culture media was collected and stored at −80° C. TNFα measurement using an ELISA (Becton Dickinson).

HCASMC = assay: Proliferation of human coronary artery smooth muscle cells; assay type: cell-based; details: VSMC, 120 h, five days, MTT
Method: Human coronary smooth muscle cells (HCASMC—Clonetics) supplied at passage 3 and used for up to a further 12 population doublings, were seeded into 96 well plates at a low seeding rate, 2-5×10^3 cells per well and allowed to attach and proliferate to 30-40% confluence for 24-48 hours. Prior to inoculation the medium was changed to fresh growth medium. Test compounds were prepared in growth medium and added to plates so that the final concentrations were a series from 150 μM to 0.6 μM. The cells were incubated for five days, cell number assessed using MTT and an IC50 for each compound calculated.

superoxide = assay: Extracellular superoxide production by differentiated HL-60 cells (cytochrome C reduction); assay type: cell-based, human; details: for extracellular superoxide production, % change compared with vehicle control: HL-60, PMA; for inhibition of superoxide production: Cpd. 16 at 100 μM
Method: The human promyeloblast cell line HL-60 can be differentiated into neutrophil-like cells, which then produce ROS when activated. HL-60 cells were grown in RPMI-1640 medium containing glutamine and supplemented with FBS 20%. They were differentiated by culturing for 6 days in medium containing DMSO 1.25%, after which they were washed, centrifuged and incubated at 37° C. for 5 minutes with cytochalasin before transfer to PBS containing cytochrome C and test compound. After a 5 minute incubation, phorbol myristate acetate (PMA) was added to activate the HL-60 cells, which were then incubated for a further 10 minutes. The cells were then pelleted by centrifugation, and the change in absorbance due to reduction of cytochrome C in the cell-free supernatant was measured at 550 nm. The increase in absorbance is a direct measure of extracellular superoxide production by the cells, and a reduction in those samples incubated with test compounds would indicate anti-oxidant activity. Samples were examined in duplicate, and the assay done three times.

[1] = system: BALB/c mice (PMA-induced ear swelling); assay: Murine ear inflammation assay, PMA-induced ear swelling; assay type: in vivo, mouse; details: 25 mg/kg i/p; for % Change compared with vehicle / Change in ear thickness (mean ± SD, ×0.01 mm): PMA, 5 hr post-PMA
Method: (§1) Female BALB/c mice (ARC, WA, Australia), weighing 15-21 g, and maintained on an isoflavone-free diet (Gordon's Specialty Stock Foods, Yanderra, NSW) for at least seven days, were randomised into test groups of five or six. To reduce animal use, mice had ear swelling induced by applying AA (Sigma, Steinheim, Germany) initially, and then by phorbol 12-Myristate 13-acetate (PMA—Sigma, Mo., USA) one week later.
(§2) Test compounds were dissolved in polyethylene glycol (PEG) 400 (Sigma, St. Louis, Mo., USA):phosphate buffered saline 1:1 and injected intraperitoneally (i/p) at a dose of 25 mg/kg either 30 min prior to AA treatment or 1 hr prior to PMA treatment. Mice were anaesthetised using isoflurane (Veterinary Companies of Australia Pty Ltd, NSW, Australia) and baseline thickness of both ears was measured using a spring micrometer (Interapid, Zurich, Switzerland). Each mouse received a total of 20 μL of either AA in ethanol (50 mg/ml) or PMA in acetone (0.2 mg/ml) applied to the inner and outer surfaces of each pinna (i.e. 5 μL per ear surface). Mice were anaesthetised again to remeasure the ears at 1 hr post-AA application or at 5 hr post-PMA application.
(§3) The difference in ear swelling pre- and post-application of inflammogen for each ear was calculated. The difference in mean swelling of each test group compared to the group given vehicle alone was calculated using a two-tailed unpaired t-test (Prism 4, Graphpad Software).

[2] = system: BALB/c mice (AA-induced ear swelling); assay: Murine ear inflammation assay, AA-induced ear swelling; assay type: in vivo, mouse; details: 25 mg/kg i/p; for % Change compared with vehicle / Change in ear thickness (mean ± SD, ×0.01 mm): AA, 1 hr post-AA
Method: as §1, §2, §3

red blood cells = assay: Peroxyl radical (AAPH)-induced red blood cell lysis; assay type: cell-based; details: 10 μM; AAPH-induced RBC lysis; vehicle 40.0
Method: Freshly collected heparinised venous blood (10 ml, on ice) was aliquotted into 1.8 ml sterile eppendorf tubes and centrifuged for 10 minutes at 2600 rpm at 4° C. Plasma and buffy coat layers were removed (approximately 900 μl) and packed red blood cells (RBC) were then washed by the addition of 900 μl of sterile, ice cold PBS. This washing procedure was repeated twice. Packed RBC were resuspended by the addition of 900 μl of ice-cold, sterile PBS (and termed RBC stock). RBC stocks were stored at 4° C. for a maximum of three days. All working suspensions of RBC were prepared fresh daily by diluting 200 μl of RBC stock into 10 ml of ice-cold, sterile PBS and 50 μl added to each well.
The free radical generator AAPH (1.22 gm) was dissolved in 7.5 ml of PBS to yield a 4× stock at 600 mM and 50 μl aliquots (final concentration of 150 mM) were then added to each well to initiate the lysis assay. Test compounds were examined at […] (in DMSO 0.25%). Appropriate controls were included in each experiment. Peroxyl-induced RBC lysis assays were performed in 96-flat bottom well microtitre plates with a total volume of 200 μl per well. Turbidity of RBC suspensions were monitored using a Tecan microplate reader at 690 nm (37° C.) with gentle vortexing. Assays were performed in quadruplicate and readings were taken every 5 minutes over 5 hours. RBC lysis curves were constructed by plotting absorbance (mean of 4 readings) against time. Time to half-lysis was calculated by taking the highest absorbance reading (no lysis) and the lowest absorbance reading (maximum lysis). The sum of these two readings divided by two gave the absorbance at half-lysis. Simple regression analysis was used to calculate the time at which half-lysis absorbance occurred.

[3] = DPPH free radical scavenging; details: DPPH 0.1 mM, 20 minutes; read-out: Free radical scavenging ability EC50
Method: The antioxidant (free radical trapping) activity of test compounds was assessed using the stable free radical compound 2,2-diphenyl-1-picrylhydrazyl (DPPH). A stock solution of DPPH was prepared at a concentration of 0.1 mM in ethanol and mixed for 10 minutes prior to use. Test compounds at a concentration of 100 μM were reacted with DPPH for 20 minutes, after which time the absorbance at 517 nm was determined and the change in absorbance compared to a reagent blank (DPPH with ethanol alone). A dose response curve was produced for those compounds with free radical scavenging activity (ΔAbs>0.3) at 100 μM. The IC50 value was estimated as the concentration of test compound that caused a 0.6 change in absorbance (with 1.2 absorbance units representing total scavenging of the DPPH radical).

| Compound | EC50 [3] | synthesis of TNFα (TNFα) | IC50 (HCASMC) | extracellular superoxide production, % change compared with vehicle control (superoxide; 10 μM) | extracellular superoxide production, % change compared with vehicle control (superoxide; 100 μM) | inhibition of superoxide production (superoxide) | % Change compared with vehicle [1] | Change in ear thickness (mean ± SD, ×0.01 mm) [1] | ear oedema caused by the application of AA [2] | % Change compared with vehicle [2] | Change in ear thickness (mean ± SD, ×0.01 mm) [2] | Time taken to reach half-lysis (red blood cells) | inflammation caused by the application of PMA [1] |
| --- | --- | --- | --- | --- | --- | --- | --- | --- | --- | --- | --- | --- | --- |
| Cc1c(O)ccc2c1OCC(c1cccc(O)c1)=C2 [Cpd. 14, 3′,7-Dihydroxy-8-methylisoflav-3-ene] | 47 µM | tended to do so | 54 µM | −20% | −20% | trend towards inhibition | +7% | 27.9 ± 3.8 ×0.01 mm | significant reduction | −34% | 10.7 ± 2.9 ×0.01 mm | 134.7 min |  |
| COc1ccc(C2=Cc3ccc(O)c(C)c3OC2)cc1OC [Cpd. 19, 7-Hydroxy-3′,4′-dimethoxy-8-methylisoflav-3-ene] | 74 µM | inhibited | 63 µM | −11% | 16% | trend towards inhibition | −26% | 22.1 ± 3.9 ×0.01 mm | significant reduction | −34% | 9.3 ± 3.9 ×0.01 mm | 111.6 min | significantly inhibited |
| Oc1ccc2c(c1)OCC(c1ccc(Br)cc1)=C2 [Cpd. 21, 4′-Bromo-7-hydroxyisoflav-3-ene] | 43 µM | inhibited | 29 µM | −10% | −11% | trend towards inhibition | +24% | 27.2 ± 8.6 ×0.01 mm |  | −11% | 14.4 ± 5.1 ×0.01 mm | 140.8 min |  |

The next lines start with results.

| EC50 [3] | Compound | synthesis of TNFα (TNFα) | IC50 (HCASMC) | extracellular superoxide production, % change compared with vehicle control (superoxide; 10 μM) | extracellular superoxide production, % change compared with vehicle control (superoxide; 100 μM) | inhibition of superoxide production (superoxide) | % Change compared with vehicle [1] | Change in ear thickness (mean ± SD, ×0.01 mm) [1] | ear oedema caused by the application of AA [2] | % Change compared with vehicle [2] | Change in ear thickness (mean ± SD, ×0.01 mm) [2] | Time taken to reach half-lysis (red blood cells) | inflammation caused by the application of PMA [1] |
| --- | --- | --- | --- | --- | --- | --- | --- | --- | --- | --- | --- | --- | --- |
| 45 µM | COc1cccc(C2=Cc3ccc(O)cc3OC2)c1 [Cpd. 16, 7-Hydroxy-3′-methoxyisoflav-3-ene] | tended to do so | 118 µM | −22% | −57* % | significantly inhibited | −11% | 23.3 ± 4.5 ×0.01 mm | significant reduction | −29% | 11.6 ± 2.9 ×0.01 mm | 164.3 min |  |
| 48 µM | COc1ccc(C2=Cc3ccc(O)cc3OC2)cc1OC [Cpd. 18, 7-Hydroxy-3′,4′-dimethoxyisoflav-3-ene] | inhibited | 88 µM | −24% | −36* % |  | −1% | 29.6 ± 2.7 ×0.01 mm | significant reduction | −40% | 8.4 ± 3.7 ×0.01 mm | 107.7 min |  |
| 24 µM | Oc1ccc(C2=Cc3ccc(O)c(Br)c3OC2)cc1 [Cpd. 20, 4′,7-Dihydroxy-8-bromoisoflav-3-ene] | tended to do so | 27 µM | 6% | 28% | not active | +4% | 22.7 ± 4.7 ×0.01 mm |  | −11% | 14.4 ± 6.1 ×0.01 mm | 122.0 min |  |
